From ChEMBL document CHEMBL4665643 (Bioorg Med Chem Lett, 2019)

Tests used:
[1] = Lipophilicity, logD of compound; format: physicochemical; settings: octanol/water
[2] = biological target: Tyrosine-protein kinase SYK (Homo sapiens) (UniProt P43405); assay: Inhibition of recombinant human N-terminalGST-tagged full length SYK expressed in baculovirus expression system using Tyr 02 as substrate at 0.1 uM incubated for 60 mins by Z'-Lyte assay relative to control
[3] = biological target: T1, Inhibitor of nuclear factor kappa-B kinase subunit epsilon (Homo sapiens) (UniProt Q14164); assay: Inhibition of recombinant human GST-tagged full length IKKepsilon expressed in baculovirus expression system using Ser/Thr 11 as substrate at 0.1 uM incubated for 60 mins by Z'-lyte assay relative to control
T1 sequence (whole entry): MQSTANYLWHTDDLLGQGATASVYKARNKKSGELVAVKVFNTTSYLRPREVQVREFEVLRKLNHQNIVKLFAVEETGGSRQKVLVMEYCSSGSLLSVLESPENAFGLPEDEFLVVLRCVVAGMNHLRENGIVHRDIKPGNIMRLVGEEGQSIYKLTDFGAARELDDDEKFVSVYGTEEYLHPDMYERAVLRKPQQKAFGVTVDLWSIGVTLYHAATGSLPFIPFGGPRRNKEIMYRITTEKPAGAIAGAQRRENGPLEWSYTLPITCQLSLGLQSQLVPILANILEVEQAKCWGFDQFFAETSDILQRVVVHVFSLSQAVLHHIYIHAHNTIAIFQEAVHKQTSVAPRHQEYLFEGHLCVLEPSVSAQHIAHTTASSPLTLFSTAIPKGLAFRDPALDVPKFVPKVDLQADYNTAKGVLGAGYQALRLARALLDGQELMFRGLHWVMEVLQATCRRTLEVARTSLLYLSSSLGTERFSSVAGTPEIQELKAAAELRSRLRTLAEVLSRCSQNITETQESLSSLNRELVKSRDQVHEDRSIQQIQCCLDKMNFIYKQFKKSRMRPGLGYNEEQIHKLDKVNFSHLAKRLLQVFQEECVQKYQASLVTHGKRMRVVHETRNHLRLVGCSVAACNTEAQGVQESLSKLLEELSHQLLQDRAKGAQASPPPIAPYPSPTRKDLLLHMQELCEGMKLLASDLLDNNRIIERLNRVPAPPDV

[4] = biological target: T2, cGMP-dependent protein kinase 1 (Homo sapiens) (UniProt Q13976); assay: Inhibition of recombinant human GST-tagged full length PKG1 alpha expressed in baculovirus expression system using Ser/Thr 01 as substrate at 0.1 uM incubated for 60 mins by Z'-Lyte assay relative to control
T2 sequence (whole entry): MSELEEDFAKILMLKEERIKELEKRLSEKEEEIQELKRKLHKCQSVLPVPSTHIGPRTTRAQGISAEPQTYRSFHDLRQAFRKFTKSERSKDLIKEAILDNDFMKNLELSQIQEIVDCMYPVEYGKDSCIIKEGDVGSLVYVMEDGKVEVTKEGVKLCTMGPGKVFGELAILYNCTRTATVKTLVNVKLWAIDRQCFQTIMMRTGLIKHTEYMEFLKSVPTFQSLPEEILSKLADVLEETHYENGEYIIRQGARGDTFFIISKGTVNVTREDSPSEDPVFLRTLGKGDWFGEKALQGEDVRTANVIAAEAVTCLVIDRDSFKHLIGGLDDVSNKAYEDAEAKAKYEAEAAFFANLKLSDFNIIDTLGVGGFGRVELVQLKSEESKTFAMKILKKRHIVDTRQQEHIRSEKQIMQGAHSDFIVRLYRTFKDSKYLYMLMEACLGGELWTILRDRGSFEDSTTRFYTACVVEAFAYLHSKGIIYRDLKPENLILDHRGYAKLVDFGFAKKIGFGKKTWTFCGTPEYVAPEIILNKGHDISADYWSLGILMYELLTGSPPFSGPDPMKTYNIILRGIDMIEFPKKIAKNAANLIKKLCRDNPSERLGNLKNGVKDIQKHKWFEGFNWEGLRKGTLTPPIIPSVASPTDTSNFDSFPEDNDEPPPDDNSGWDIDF

[5] = biological target: T3, Inhibitor of nuclear factor kappa-B kinase subunit beta (Homo sapiens) (UniProt O14920); assay: Inhibition of recombinant human GST-tagged full length IKKbeta expressed in baculovirus expression system using Ser/Thr 05 as substrate at 0.1 uM incubated for 60 mins by Z'-Lyte assay relative to control
T3 sequence (whole entry): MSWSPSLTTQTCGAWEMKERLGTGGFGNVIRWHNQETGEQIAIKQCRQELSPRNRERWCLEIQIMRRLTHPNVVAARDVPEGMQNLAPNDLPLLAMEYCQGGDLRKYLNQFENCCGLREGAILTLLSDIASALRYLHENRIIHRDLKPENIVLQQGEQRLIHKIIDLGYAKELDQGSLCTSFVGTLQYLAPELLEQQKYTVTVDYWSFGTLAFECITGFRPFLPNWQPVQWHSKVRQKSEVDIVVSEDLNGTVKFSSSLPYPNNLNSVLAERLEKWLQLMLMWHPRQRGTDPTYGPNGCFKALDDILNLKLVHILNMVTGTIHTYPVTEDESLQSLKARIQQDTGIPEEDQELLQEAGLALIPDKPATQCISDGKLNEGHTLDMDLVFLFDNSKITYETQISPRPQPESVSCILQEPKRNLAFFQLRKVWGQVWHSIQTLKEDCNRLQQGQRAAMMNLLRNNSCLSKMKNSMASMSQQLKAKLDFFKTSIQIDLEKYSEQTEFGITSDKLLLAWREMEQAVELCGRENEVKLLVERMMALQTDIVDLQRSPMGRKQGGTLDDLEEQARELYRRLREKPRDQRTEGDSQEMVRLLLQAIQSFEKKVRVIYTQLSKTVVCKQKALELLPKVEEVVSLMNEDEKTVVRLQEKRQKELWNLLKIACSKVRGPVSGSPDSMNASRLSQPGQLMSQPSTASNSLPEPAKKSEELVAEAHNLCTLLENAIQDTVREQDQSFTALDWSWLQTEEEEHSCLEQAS

[6] = biological target: Focal adhesion kinase 1 (Homo sapiens) (UniProt Q05397); assay: Inhibition of recombinant human GST-tagged full length FAK expressed in baculovirus expression system using Tyr 07 as substrate at 0.1 uM incubated for 60 mins by Z'-Lyte assay relative to control
Sequence of Focal adhesion kinase 1 (Homo sapiens) (Q05397 2-1052 limits assumed): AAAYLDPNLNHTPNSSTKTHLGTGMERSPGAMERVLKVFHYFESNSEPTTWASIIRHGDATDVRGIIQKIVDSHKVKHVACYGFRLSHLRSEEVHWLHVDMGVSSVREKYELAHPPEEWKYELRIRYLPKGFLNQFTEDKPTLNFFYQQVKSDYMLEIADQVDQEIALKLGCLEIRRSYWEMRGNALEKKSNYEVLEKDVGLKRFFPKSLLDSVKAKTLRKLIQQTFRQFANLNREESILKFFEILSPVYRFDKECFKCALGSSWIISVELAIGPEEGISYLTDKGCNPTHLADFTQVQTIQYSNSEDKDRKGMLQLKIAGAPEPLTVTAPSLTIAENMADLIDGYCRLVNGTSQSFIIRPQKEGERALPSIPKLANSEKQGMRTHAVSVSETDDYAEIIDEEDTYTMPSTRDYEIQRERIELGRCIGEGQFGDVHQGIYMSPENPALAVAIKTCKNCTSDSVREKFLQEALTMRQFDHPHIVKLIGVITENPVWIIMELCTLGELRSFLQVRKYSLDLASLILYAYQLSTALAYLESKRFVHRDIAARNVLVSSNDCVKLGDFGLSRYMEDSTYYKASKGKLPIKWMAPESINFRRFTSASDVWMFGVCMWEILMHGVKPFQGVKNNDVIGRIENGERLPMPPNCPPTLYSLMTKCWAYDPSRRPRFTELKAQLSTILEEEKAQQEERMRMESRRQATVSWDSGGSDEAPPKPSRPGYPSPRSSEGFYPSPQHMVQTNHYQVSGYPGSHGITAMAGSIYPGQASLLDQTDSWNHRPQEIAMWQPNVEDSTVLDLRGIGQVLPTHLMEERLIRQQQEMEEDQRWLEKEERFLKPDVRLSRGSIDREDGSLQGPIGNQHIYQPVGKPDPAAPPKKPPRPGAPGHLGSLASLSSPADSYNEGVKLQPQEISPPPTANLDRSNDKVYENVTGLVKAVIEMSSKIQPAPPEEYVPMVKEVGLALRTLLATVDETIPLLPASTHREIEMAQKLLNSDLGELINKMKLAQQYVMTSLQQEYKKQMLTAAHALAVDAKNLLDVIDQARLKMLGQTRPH

Janus Kinase (JAK) = Janus Kinase (JAK) (Homo sapiens, UniProt P52333+P23458+O60674+P29597); settings: beas-2b
Description: Inhibition of JAK in human BEAS-2B cells assessed as reduction in IL13-induced STAT6 phosphorylation incubated for 1 hr followed by IL13 addition and measured after 15 mins by immunofluorescence assay

[7] = Metabolic stability in human liver microsomes assessed as intrinsic clearance at 1 uM measured upto 60 mins by LC-MS/MS analysis; format: ADME, Microsome; settings: read-out: CLH

SMILES | logD [1] | inhibition [2] [%] | inhibition [3] [%] | inhibition [4] [%] | inhibition [5] [%] | inhibition [6] [%] | IC50 (Janus Kinase (JAK)) [nM] | CLint scaled at 1 µM [7] [mL/min/kg]
O=C(Nc1c[nH]nc1-c1cc(Cl)ccc1OC(F)F)c1cnn2cccnc12 | 3.2 | 8 | 8 | 0 | 2 | 14 | 5.2 | 14
O=C(Nc1c[nH]nc1-c1cc2ccccc2cc1OC(F)F)c1cnn2cccnc12 | 3.5 | 6 | 3 | 3 | -3 | 20 | 6.4 | 17
Cn1cc(NC(=O)c2cnn3cccnc23)c(-c2cc(Cl)ccc2OC(F)F)n1 | 3 | 7 | 5 | 4 | 5 | 15 | 4.7 | 15
